Data: US9303044B2, “7-(piperazin-1-yl)-5H-[1,3,4]thiadiazolo[3,2-A]pyrimidin-5-ones for the treatment of thrombotic disorders” (The Rockefeller University, priority 2012, dated 2016)

Tested on: platelet aggregation
Test: ADP-induced platelet aggregation assay in citrated platelet-rich plasma
Type: cell-based
Conditions: Homo sapiens, initial slopes, read-out: IC50, inhibition of platelet aggregation
Procedure: The platelet aggregation assay may be conducted by modification of the assay as disclosed in Blue et al., Blood 2008, 111, 1248, the contents of which are incorporated by reference in their entirety. Citrated platelet-rich plasma (PRP), may be generated by the centrifugation of whole blood at 650 g for 4 minutes at 22° C., and may then be incubated in aggregometer cuvettes with Compounds of the Invention (final concentration of 100 μM, 30 μM, 10 μM, 1 μM, 0.30 μM, 0.1 μM, 0.03 μM and 0.01 μM) or controls for 15 minutes at 37° C. After 30 seconds in the aggregometer (Bio/Data PAP8; Horsham, Pa.) at 37° C. with stiffing, ADP (5-20 μM) may be added to induce aggregation and the light transmittance is measured for 8 minutes. The initial slopes of aggregation in the presence of different concentrations of the Compound tested may be used to generate an IC50.

Row | Structure (SMILES) | IC50 [nM]
1 | NCC(=O)Nc1cc(-c2nn3c(=O)cc(N4CCNCC4)nc3s2)ccn1 [Example 14-B, 2-amino-N-(4-(5-oxo-7-(piperazin-1-yl)-5H-[1,3,4]thiadiazolo[3,2-a]pyrimidin-2-yl)pyridin-2-yl)acetamide] | 53.6 ± 15.5
2 | NCC(=O)Nc1cncc(-c2nn3c(=O)cc(N4CCNCC4)nc3s2)c1 [Example 14-C, 2-Amino-N-(5-(5-oxo-7-(piperazin-1-yl)-5H-[1,3,4]thiadiazolo[3,2-a]pyrimidin-2-yl)pyridin-3-yl)acetamide] | 62 ± 10
